Test results as given in ChEMBL document CHEMBL5104170, “Discovery of vimseltinib (DCC-3014), a highly selective CSF1R switch-control kinase inhibitor, in clinical development for the treatment of Tenosynovial Giant Cell Tumor (TGCT)” (Bioorg Med Chem Lett, 2022).

Key:
cells = details: Homo sapiens, Osteoclast
Description: Inhibition of RANKL-induced human osteoclast precursor cells differentiation in presence of human CSF1 and measured by tartrate-resistant acid phosphatase activity assay

NFS-60 = assay: cells; details: Mus musculus, NFS-60, 72 h
Description: Antiproliferative activity against CSF1-treated mouse NFS-60 cells measured after 72 hrs by resazurin method

[1] = Inhibition of His-Glu tagged recombinant human KIT Q694-T753 deletion mutant (565 to 935 residues) measured by spectrophotometric analysis

Row | Structure (SMILES) | IC50 (cells) [µM] | IC50 (NFS-60) [µM] | IC50 [1] [µM]
1 | CN(C)CC(=O)N1CCC(c2ccc(NC(=O)c3nc(C#N)c[nH]3)c(C3=CCCCC3)c2)CC1 | 0.0017 |  | 
2 | Cc1nc(-c2cnc(N3CCCC3)[nH]c2=O)ccc1Oc1ccnc(-c2cnn(C)c2)c1 |  | 0.056 | > 3.3
3 | Cc1nc(-c2cnc(N3CCOCC3)[nH]c2=O)ccc1Oc1ccnc(-c2cnn(C)c2)c1 |  | 0.494 | > 3.3
4 | Cc1nc(-c2cnc(N(C)C)[nH]c2=O)ccc1Oc1ccnc(-c2cnn(C)c2)c1 | 0.017 | 0.716 | > 3.3
5 | CCNc1ncc(-c2ccc(Oc3ccnc(-c4ccc(C)nc4)c3)c(C)n2)c(=O)[nH]1 |  | 1.2 | 1.5
6 | CNc1ncc(-c2ccc(Oc3ccnc(-c4cnn(C)c4)c3)c(C)n2)c(=O)[nH]1 |  | 1.3 | 0.257
7 | CCNc1ncc(-c2ccc(Oc3ccnc(-n4cnc(C)c4)c3)c(C)n2)c(=O)[nH]1 |  | 2.8 | 1.3

Results, then the molecule that gave them:

Row | IC50 (cells) [µM] | IC50 (NFS-60) [µM] | IC50 [1] [µM] | Structure (SMILES)
8 |  | 0.016 | 0.473 | Cc1cc(-c2cnc(N3CCCC3)[nH]c2=O)ncc1Oc1ccnc(-c2cnn(C)c2)c1
9 | 0.0074 | 0.018 | 1.7 | Cc1nc(-c2cnc(NC3CC3)n(C)c2=O)ccc1Oc1ccnc(-c2cnn(C)c2)c1
10 |  | 0.013 | 2 | CCn1cc(-c2cc(Oc3ccc(-c4cnc(NC(C)C)[nH]c4=O)nc3C)ccn2)cn1
